Data: US7858635B2 (priority 2005, dated 2010)

Assays:
M1 muscarinic receptor = biological target: T1, M1 muscarinic receptor (Homo sapiens, UniProt P11229); test: Functional mobilization of intracellular calcium (FLIPR, Fluo-3), M1-CHO cells; type: cell-based; conditions: compound nos. 1-454; for Emax: read-out: M1 Efficacy
T1 construct: expressed in transfected cells; host or cells: CHO cells (M1-CHO, under zeocin and G418 selection)
T1 sequence (P11229 1-460): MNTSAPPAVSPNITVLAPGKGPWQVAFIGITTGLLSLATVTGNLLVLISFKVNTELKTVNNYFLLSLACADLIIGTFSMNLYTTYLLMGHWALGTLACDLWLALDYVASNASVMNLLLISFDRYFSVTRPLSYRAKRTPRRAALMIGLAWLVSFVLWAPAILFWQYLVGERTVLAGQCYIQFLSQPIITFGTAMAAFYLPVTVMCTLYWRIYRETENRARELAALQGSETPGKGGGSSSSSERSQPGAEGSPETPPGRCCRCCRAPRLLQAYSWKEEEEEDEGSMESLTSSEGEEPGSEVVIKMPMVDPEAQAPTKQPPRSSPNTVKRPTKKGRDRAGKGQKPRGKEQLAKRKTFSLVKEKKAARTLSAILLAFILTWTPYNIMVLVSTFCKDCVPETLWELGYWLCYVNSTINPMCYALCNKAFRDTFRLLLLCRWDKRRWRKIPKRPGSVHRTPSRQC
Procedure: (§1) CHO cells expressing muscarinic receptors (M1 to M5) are grown as monolayers in tissue culture flasks at 37° C. in a humidified atmosphere containing 5% CO2 and passaged every 3-5 days. The growth media is Dulbecco's modified eagles medium (DMEM, Gibco Cat#12430-054), containing 25 mM Hepes and supplemented with Fetal Bovine Serum (Hyclone, cat# SH30071.03), 0.1 mM of MEM non-essential amino acids (GIBCO, Cat# 11140-050), 1 mM MEM Sodium Pyruvate (GIBCO Cat# 11360-070) and 100 units/ml of Penicillin G and 100 μg/ml of Streptomycin (GIBCO Cat# 15140-122). The recombinant muscarinic receptor cell lines are grown under antibiotic pressure with media containing 25 μm/ml zeocin and 500 μg/ml G418 (M1-CHO), 4 μg/ml puromycin, 50 μg/ml zeocin and 2.5 μm/ml blasticidin (M2 and M4-CHO) or 50 μg/ml zeocin and 4 μg/ml puromycin (M3 and M5-CHO).
(§2) Cells are harvested at 80-90% confluence using Versene (GIBCO Cat# 15040-066), collected by centrifugation and seeded 18-24 hrs prior to running the calcium assay at a density of 5,000-10,000 cells/well in […], clear-bottomed 384-well plates (BD Biocoat, poly-D-lysine, Cat#356663). The day of the experiment, the cells are washed with a plate washer (Bioteck Instruments, ELX 405) using bath1 buffer (140-mM NaCl, 4.5-mM KCL, 2-mM CaCl2, 1-mM MgCl2, 10-mM Hepes-Na, 10-mM Glucose, pH 7.4, with NaOH) containing 1 mM Probenecid. Next, the calcium dye Fluo-3 (25 μl/well of Fluo-3 μM at 4 μM, Molecular Probes F-1241, in Bath 1 buffer containing 1 mM Probenecid) is added to the 25 μl of Bath 1 remaining in each well after the plate wash and the dye is loaded at 37° C. in the tissue culture incubator for 60-90 min. The fluorescent dye is removed using the plate washer with Bath 1 containing 1 mM Probenecid, leaving 25 μl/well of this solution after the wash. Alternatively, cells can be loaded with the calcium indicator from Molecular Devices (Calcium 3 Assay Reagents, Cat # R7181) adding 5 μl of a 5× solution dye in Bath 1 containing 1 mM Probenecid (10 ml per dye flask cat# R7182 to generate a solution 20×) to 20 μl of the same buffer. After loading for 60 min, the experiment can be run without having to remove the dye.
(§3) Compounds are prepared at a 2× fold concentration in a 96-well plate (round bottom, Costar Corning cat# 3656), by reconstituting the pre-spotted compounds in bath 1 containing 1 mM probenecid. The final concentration DMSO is 0.5%, and the amount of DMSO is normalized across the assay plate. To determine an agonist action of the compounds on muscarinic receptors, the reconstituted compounds are added (25 μl compound/well) to the cell assay plate (containing 25 μl/well) using the multi-channel robotic system of the FLIPR 3 Instrument (Molecular Devices, Sunnyvale, Calif.). To determine a functional inhibitory action of the compounds on muscarinic receptors, the reconstituted compounds are added (25 μl compound/well) to the assay plate and pre-incubated for 15 min prior to adding 25 μl of Carbachol at 3× the EC80 for each muscarinic subtype. Alternatively, the compounds can be co-applied simultaneously with the agonist. In both assay modes, the fluorescence is recorded for 60 sec (excitation wavelength is […] and emission wavelength 540 nm) using the FLIPR 3 instrument.
(§4) The potency, efficacy and selectivity of the muscarinic compounds were evaluated by screening the compound activity across the whole family (M1 to M5 cells). Compounds were also screened for activity on other proteins such as other GPCRs and ion channels to determine selectivity on M4 receptors.

M4 muscarinic receptor = biological target: T2, M4 muscarinic receptor (Homo sapiens, UniProt P08173); test: Functional mobilization of intracellular calcium (FLIPR, Fluo-3), M4-CHO cells; type: cell-based; conditions: compound nos. 1-454; for Emax: read-out: M4 Efficacy
T2 construct: expressed in transfected cells; host or cells: CHO cells (M4-CHO, under puromycin, zeocin and blasticidin selection)
T2 sequence (P08173 1-479): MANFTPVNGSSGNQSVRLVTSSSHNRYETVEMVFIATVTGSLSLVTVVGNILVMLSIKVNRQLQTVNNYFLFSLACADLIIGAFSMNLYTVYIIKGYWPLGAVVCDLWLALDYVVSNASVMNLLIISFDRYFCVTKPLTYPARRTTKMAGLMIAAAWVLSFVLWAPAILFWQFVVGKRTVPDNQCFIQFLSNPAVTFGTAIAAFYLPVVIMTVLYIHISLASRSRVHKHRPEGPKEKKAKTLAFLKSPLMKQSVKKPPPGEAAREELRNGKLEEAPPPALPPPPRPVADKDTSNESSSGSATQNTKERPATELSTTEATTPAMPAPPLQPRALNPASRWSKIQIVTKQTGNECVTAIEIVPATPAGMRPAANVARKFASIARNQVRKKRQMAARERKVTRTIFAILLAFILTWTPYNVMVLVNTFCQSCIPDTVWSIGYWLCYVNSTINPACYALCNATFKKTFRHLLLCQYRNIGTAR
Procedure: as §1, §2, §3, §4

[1] = 100% efficacy is the maximum response obtained with the Carbachol control
[2] = M1-CHO cells, calcium mobilization
[3] = M4-CHO cells, calcium mobilization

SMILES	M1 Activity (M1 muscarinic receptor)	Emax (M1 muscarinic receptor; [1]) [%]	M4 Activity (M4 muscarinic receptor)	Emax (M4 muscarinic receptor; [1]) [%]	M1 Activity (M1 muscarinic receptor; [2])	M4 Activity (M4 muscarinic receptor; [3])	M1 Efficacy (M1 muscarinic receptor; [1])	M4 Efficacy (M4 muscarinic receptor; [1])
O=C(C1CC1)N1CC2(CCN(C3CC4CCC(C3)N4C(=O)OC3CCC3)CC2)c2cc(F)ccc21 (stereo not drawn) [compound 379]	+++ (activity was measured to be less than or equal to 0.7 μM)	65 to 85	++ (activity was measured to be between 0.1 μM and 4.0 μM)	55 to 70	–	–	–	–
Cc1ccc2c(c1)C1(CCN(C3CC4CCC3C4)CC1)CN2S(C)(=O)=O (stereo not drawn) [compound 232]	–	< 65	–	> 70	++ (activity was measured to be between 0.7 μM and 3.0 μM)	+++ (activity was measured to be less than or equal to 0.1 μM)	–	–
COCCOC(=O)N1CC2(CCN(C3CC4CCC(C3)N4C(=O)OC(C)C)CC2)c2cc(F)ccc21 (stereo not drawn) [compound 422]	+++ (activity was measured to be less than or equal to 0.7 μM)	< 65	+ (activity was measured to be greater than or equal to 4.0 μM)	< 55	–	–	–	–
CC(C)OC(=O)N1C2CCC1CC(N1CCC3(CC1)CN(C(=O)O[C@@H]1CCOC1)c1ccc(F)cc13)C2 (stereo partly drawn) [compound 402]	++ (activity was measured to be between 0.7 μM and 3.0 μM)	–	+ (activity was measured to be greater than or equal to 4.0 μM)	–	–	–	++ (efficacy was calculated to be between 85% and 65%)	+ (efficacy was calculated to be 55% or less)
CCOC(=O)N1C2CCC1CC(N1CCC3(CC1)CN(C(C)=O)c1ccc(C)cc13)C2 (stereo not drawn) [compound 9]	–	65 to 85	–	55 to 70	+++ (activity was measured to be less than or equal to 0.7 μM)	+ (activity was measured to be greater than or equal to 4.0 μM)	–	–
CC(=O)N1CC2(CCN(C3CC4CCC(C3)N4C(=O)OC3CCC3)CC2)c2cc(F)ccc21 (stereo not drawn) [compound 174]	–	> 85	–	55 to 70	+++ (activity was measured to be less than or equal to 0.7 μM)	+ (activity was measured to be greater than or equal to 4.0 μM)	–	–
c1ccc2c(c1)NCC21CCN(C2CCCCC2)CC1 [compound 375]	+++ (activity was measured to be less than or equal to 0.7 μM)	> 85	+++ (activity was measured to be less than or equal to 0.1 μM)	55 to 70	–	–	–	–
CC(=O)N1CC2(CCN(C3CCCCC3C)CC2)c2cc(F)ccc21 (stereo not drawn) [compound 52]	–	> 85	–	55 to 70	+++ (activity was measured to be less than or equal to 0.7 μM)	+++ (activity was measured to be less than or equal to 0.1 μM)	–	–
COC(=O)N1CCC(CN2CCC3(CC2)C[C@H](NC(C)=O)c2ccccc23)CC1 [compound 182]	–	65 to 85	–	55 to 70	+ (activity was measured to be greater than or equal to 3.0 μM)	+ (activity was measured to be greater than or equal to 4.0 μM)	–	–
CCOC(=O)N1C2CCC1CC(N1CCC3(CCc4ccccc43)CC1)C2 (stereo not drawn) [compound 365]	–	65 to 85	–	< 55	+++ (activity was measured to be less than or equal to 0.7 μM)	+ (activity was measured to be greater than or equal to 4.0 μM)	–	–
CCON=C1CCC(N2CCC3(CC2)CN(C(C)=O)c2ccc(F)cc23)CC1 (stereo not drawn) [compound 86, 1-(1′-(4-(ethoxyimino)cyclohexyl)-5-fluorospiro[indoline-3,4′-piperidine]-1-yl)ethanone]	–	65 to 85	–	< 55	+++ (activity was measured to be less than or equal to 0.7 μM)	+ (activity was measured to be greater than or equal to 4.0 μM)	–	–
CC(=O)N1CC2(CCN(CC3=CCCCC3)CC2)c2cc(F)ccc21 [compound 163]	–	65 to 85	–	> 70	+++ (activity was measured to be less than or equal to 0.7 μM)	++ (activity was measured to be between 0.1 μM and 4.0 μM)	–	–
Cc1ccc2c(c1)C1(CCN([C@@H]3C[C@@H]4CC[C@@H]3C4)CC1)CN2 [compound 264]	–	< 65	–	< 55	+ (activity was measured to be greater than or equal to 3.0 μM)	+ (activity was measured to be greater than or equal to 4.0 μM)	–	–
CN(C)C(=O)N1CC2(CCN(C3CCN(c4ccccc4F)CC3)CC2)c2cc(F)ccc21 [compound 437]	++ (activity was measured to be between 0.7 μM and 3.0 μM)	65 to 85	++ (activity was measured to be between 0.1 μM and 4.0 μM)	< 55	–	–	–	–
CCOC(=O)N1C2CCC1CC(N1CCC3(CC1)CN(C(C)=O)c1ccc(Cl)cc13)C2 (stereo not drawn) [compound 417]	++ (activity was measured to be between 0.7 μM and 3.0 μM)	< 65	+ (activity was measured to be greater than or equal to 4.0 μM)	< 55	–	–	–	–
